Experimental data reported in patent US20230165865A1, “HETEROARYLDIHYDROPYRIMIDINE DERIVATIVES AND METHODS OF TREATING HEPATITIS B INFECTIONS” (Janssen Pharmaceutica NV, priority 2018, published 2023).
Like-named read-outs stand apart in the source and are kept apart here.

What was measured:
HBV = assay: Anti-viral assay in HepG2.2.15 cells: anti-HBV activity, HBV DNA in culture medium by qPCR; type: cell-based; conditions: HepG2.2.15 cells, 6 days treatment, HBV DNA by qPCR; read-out: EC50
In short: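 Cells in 2% FBS medium treated 6 days, compound and medium refreshed at day 3; 8-point 1:3 dilutions in triplicate, top 10 or 1 uM (antiviral) and 100 uM (cytotoxicity). Extracellular viral DNA quantified by qPCR, giving EC50 and CC50.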

HepG2.2.15 cells = assay: Cytotoxicity determination in HepG2.2.15 cells (CCK-8 assay); type: cell-based; conditions: 6 days treatment, CCK-8, highest concentration 100 uM
In short: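 HepG2.2.15 cells (5,000/well, 2% FBS medium) were treated for 6 days, with medium and compound refreshed at day 3. Dosing was an 8-point 1:3 series from 100 uM, in triplicate. Viability was measured by CCK-8 after 2.5 h at 37 °C (A450, 630 nm reference), and CC50 was calculated.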

[1] = Metabolic stability of test compound in human hepatocyte cell; type: in vitro ADME; conditions: cryopreserved human hepatocytes (suspension), human hepatocytes; for half-life at 1 uM: 0-120 min, read-out: T½; for CLint scaled at 1 uM: scale-up intrinsic clearance, scaling factor 2544.3, read-out: Clint (liver)
Procedure: (§1) • 1. The cryopreserved human hepatocytes cells were thawed in 37° C. water bath and diluted with pre-warmed incubation medium to a working cell density of 1×10^6 viable cells/mL. • 2. The 198 μL pre-warmed hepatocyte suspensions were spiked with 2 μL of 100 μM compound or reference compound(Verapamil) at a final concentration of 1.0 μM in a 96-well plate. The plate was incubated at 37° C., 900 rpm. All incubations will be performed in singlet. • 3. 25 μL aliquots of well contents were collected at time points of 0, 15, 30, 60, 90 and 120 minutes. The reactions were stopped by the addition of 6-fold volumes of cold acetonitrile with internal standards. • 4. After centrifugation for 25 minutes at 3,220 g. Aliquot of 100 μL of the supernatant was mixed with 100 μL of ultra-pure H2O and then used for LC-MS/MS analysis.
(§2) All calculations were carried out using Microsoft Excel. Peak areas were determined from extracted ion chromatograms. Determine the in vitro half-life (t1/2) of parent compound by regression analysis of the percent parent disappearance vs. time curve.
(§3) The in vitro half-life (in vitro t1/2) is determined from the slope value k:
(§4) Conversion of the in vitro t1/2(in min) into the in vitro intrinsic clearance (in vitro CLint, in μL/min/10^6 cells) is done using the following equation:
(§5) V=incubation volume (0.2 mL);
(§6) N=number of hepatocytes per well (0.2×10^6 cells).
(§7) Conversion of the in vitro t1/2(in min) into the scale-up intrinsic clearance (CLint(liver), in mL/min/kg) was done using the following equation:
(§8) CLint(liver)=kV/N×scaling factor

human hepatocytes = assay: as above; type: in vitro ADME; conditions: comparing with reference 1 and reference 2
Procedure: as §1, §2, §3, §4, §5, §6, §7, §8

[2] = Pharmacokinetic and tissue distribution study via intravenous and oral administration in male C57BL/6 mice; type: in vivo; conditions: for Kp: liver and plasma, po
Procedure: Male C57BL/6 mice with a weight range of 20-25 g (Hua Fu Kang, China) were used. Animals were fasted overnight and free access to food 4 hours after dosing.
Test compound (correction factor: 1.00) was dissolved in a 20% hydroxypropyl-β-cyclodextrin (HP-β-CD) at a final concentration of 1 mg/ml for the intravenous (IV) formulation and at final concentrations of 0.5 mg/ml for the oral (PO) formulation. The intravenous formulation was dosed at 2 ml/kg to obtain a dose of 2 mg/kg. The oral formulations were dosed at 10 ml/kg to obtain final doses of 5 mg/kg.
Blood samples were taken at 7 and 20 min, 1, 2, 4, 8 and 24 h after intravenous dose administration. Blood and liver samples were taken at 30 min, 1, 2, 4, 8, 12 and 24 h after oral dose administration.
(§9) Approximately 0.020 mL blood will be collected into BD blood collection tubes containing K3-EDTA at each time point. Samples were placed immediately on melting ice and plasma was obtained following centrifugation at 4° C. for 5 minutes at approximately 4000×g. Plasma samples were adjusted to pH 3-4 by phosphoric acid and stored at −75±15° C. prior to analysis. The whole process was completed within 1 hour.
Liver samples were collected at adopted time point, and the vial containing the tissues sample was snap-frozen in liquid nitrogen right away and kept at −75±15° C. prior to analysis. All liver samples were weighed and homogenized with phosphoric acid solution (pH to 3-4) by liver weight (g) to phosphoric acid solution volume (mL) ratio 1:4 before analysis.
Plasma and liver samples were analyzed using LC-MS/MS methods. The lower limit of quantification (LLOQ) for plasma was 1.0 ng/ml and for liver was 2.5 ng/g. A non-compartmental analysis using the “Linear up log down” rule was used for all data. A limited pharmacokinetic analysis was performed using Phoenix™ Professional (Version 6.1).

[3] = Pharmacokinetic study after intravenous and oral administration in male SD rats; type: in vivo; conditions: for clearance / Cmax: male, SD; for clearance / Cmax / IV AUCinf/Dose / PO AUCinf/Dose / clearance, in words / dose-normalized AUC (AUCinf/Dose), in words: rat plasma; for clearance / IV AUCinf/Dose: IV, nominal 2 mg/kg; for clearance: read-out: IV Cl; for Cmax / PO AUCinf/Dose: PO; for Cmax: nominal 5 mg/kg; for clearance, in words / dose-normalized AUC (AUCinf/Dose), in words / bioavailability (F (%)), in words: comparing with reference 2; for F / bioavailability (F (%)), in words: rat; for F: PO vs IV
Procedure: Male SD rats with a weight range of 250-300 g (Si Bei Fu Laboratory Animal Technology Co. Ltd, China) were used. Animals were fasted overnight and free access to food 4 hours after dosing.
Test compound (correction factor: 1.00) was dissolved in a 20% hydroxypropyl-β-cyclodextrin (HP-β-CD) at a final concentration of 1 mg/ml for the intravenous (IV) formulation and at final concentrations of 0.5 mg/ml for the oral (PO) formulation.
The intravenous formulation was dosed at 2 ml/kg to obtain a dose of 2 mg/kg. The oral formulations were dosed at 10 ml/kg to obtain final doses of 5 mg/kg.
Blood samples were taken at 5, 15 and 30 min, 1, 2, 4, 8 and 24 h after intravenous dose administration. Blood samples were taken at 15 and 30 min, 1, 2, 4, 8, 12 and 24 h after oral dose administration.
as §9, with “0.20” for “0.020”, “containing Sodium Fluoride (NaF), Potassium Oxalate (KoX) and” for “containing”
Plasma samples were analyzed using LC-MS/MS methods. The lower limit of quantification (LLOQ) for plasma was 1.0 ng/ml.
A non-compartmental analysis using the “Linear up log down” rule was used for all data. A limited pharmacokinetic analysis was performed using Phoenix™ Professional (Version 6.1). Results: See table 10 below for plasma PK results.

| SMILES | EC50 (HBV) [µM] | CC50 (HepG2.2.15 cells) [µM] | half-life at 1 uM [1] [h] | CLint scaled at 1 uM [1] [mL/min/kg] | metabolic stability in human hepatocyte cells, in words (human hepatocytes) | clearance [3] [mL/min/kg] | Cmax [3] [ng/mL] | IV AUCinf/Dose [3] [ng·kg·h/mg/mL] | PO AUCinf/Dose [3] [ng·kg·h/mg/mL] | clearance, in words [3] | dose-normalized AUC (AUCinf/Dose), in words [3] | F [3] [%] | bioavailability (F (%)), in words [3] | other results |
| --- | --- | --- | --- | --- | --- | --- | --- | --- | --- | --- | --- | --- | --- | --- |
| CCOC(=O)C1=C(CN2CCN3C(=S)N(CC(C)(C)C(=O)O)CC3C2)NC(c2nccs2)=NC1c1cccc(F)c1Cl (single isomer, unassigned) [Compound 3B, 3-(7-((6-(2-chloro-3-fluorophenyl)-5-(ethoxycarbonyl)-2-(thiazol-2-yl)-3,6-dihydropyrimidin-4-yl)methyl)-3-thioxohexahydroimidazo[1,5-a]pyrazin-2(3H)-yl)-2,2-dimethylpropanoic acid] | 0.0017 | 17.8 | 2.91 | 10.1 | improved metabolic stability | 23.4 | 1180 | 771.6 | 389.2 | far slower clearance | over two-folds higher | 50.3 | increased (or equal) bioavailability | Kp ([2]; male, C57BL/6, mouse, mice, PO, read-out: AUCInf Ratio (Liver/Plasma)): 19.9; Kp ([2]; male, C57BL/6, mouse, mice, PO, read-out: Cmax Ratio (Liver/Plasma)): 15.3; clearance ([2]; male, C57BL/6, mouse, mice plasma, IV, nominal 2 mg/kg, read-out: IV Cl): 20.2 mL/min/kg; Cmax ([2]; male, C57BL/6, mouse, mice plasma, PO, dose per compound in table (5.28-9.95 mg/kg)): 2340 ng/mL; Liver AUCinf/Dose ([2]; mice liver, PO): 20884 ng·kg·h/g/mg; Liver Cmax/Dose ([2]; mice liver, PO): 6624 kg·ng/mg/mL; dose-normalized Cmax and dose-normalized AUCinf in liver, in words ([2]; mice liver, comparing with reference 1 and reference 2): far increased; IV AUCinf/Dose ([2]; mice plasma, IV, nominal 2 mg/kg): 830.9 ng·kg·h/mg/mL; PO AUCinf/Dose ([2]; mice plasma, PO): 1049.3 ng·kg·h/mg/mL; clearance, in words ([2]; mice plasma, comparing with reference 1 and reference 2): far slower clearance; F ([2]; mice, PO vs IV): 126%; bioavailability in plasma, in words ([2]; mice, comparing with reference 1 and reference 2): increased bioavailability |
| COC(=O)C1=C(CN2CCN3C(=S)N(CC(C)(C)C(=O)O)CC3C2)NC(c2nccs2)=NC1c1ccc(F)cc1Cl (single isomer, unassigned) [Compound 4B, 3-(7-((6-(2-chloro-4-fluorophenyl)-5-(methoxycarbonyl)-2-(thiazol-2-yl)-3,6-dihydropyrimidin-4-yl)methyl)-3-thioxohexahydroimidazo[1,5-a]pyrazin-2(3H)-yl)-2,2-dimethylpropanoic acid] | 0.0019 | 23.1 | > 4.82 | < 6.1 | improved metabolic stability | 28.8 | 962 | 594.3 | 336.8 | far slower clearance | over two-folds higher | 56.5 | increased (or equal) bioavailability | – |
